Test results published in PMC4929566, “The metabolome of [2-^14C](−)-epicatechin in humans: implications for the assessment of efficacy, safety, and mechanisms of action of polyphenolic bioactives” (Scientific Reports, 2016).
Where two headings read alike, the source gives them in different places.

How the values were obtained:
[1] = Metabolite profiling and quantification in urine (HPLC-MS2 with on-line radioactivity detector); assay type: in vivo, humans; conditions: human, oral 207 μmol 14C-EC, mean ± SEM n=8
Procedure: (§1) The study was a single-center, open-label, and non-randomized study with two distinct elements: a run-in phase to establish a more defined dietary background of dietary flavanols and procyanidins and the subsequent ^14C-EC ADME study (Fig. 1B). Participants (n = 12) were enrolled in the run-in phase (day –17 to day –4) and asked to supplement their daily diet for 14 days with a commercially available flavanol-containing cocoa-based drink (250 mg cocoa flavanols; 40 mg of EC). This was followed by a 4-day period (day –4 to 0) of a low-flavanol diet. One day (study day -1) prior to the initialization of the ^14C-EC ADME study, all eligible participants were accommodated under controlled conditions at a metabolic research facility (Covance Clinical Pharmacology Inc., Wisconsin) until completion of the study. Based on the compliance of the first part of the study, 8 participants were selected to participate in the ^14C-EC ADME study. During the ^14C-EC ADME study (Fig. 1B.), volunteers received a low-flavanol, standardized high-fiber diet, and were encouraged to maintain an adequate level of hydration (water ad libitum). Volunteers were asked to fast for 8 h before the initiation of the study and for at least 4 h after the intake of the ^14C-EC test drink (water ad libitum). Venous blood samples were taken using Vacutainer collection tubes, containing potassium EDTA at 0 h (just prior to ^14C-EC ingestion), and at 0.25, 0.5, 1, 1.5, 2, 2.5, 3, 4, 6, 8, 10, 12, 16, 24, 36, and 48 h after test drink consumption. Plasma was obtained by whole blood centrifugation at 2000 × g for 15 min at 5 °C, separated into aliquots and stored at −80 °C until analysis. All urine and feces from the time just prior to the consumption of the test drink were collected at different time intervals for radioactivity and metabolite profiling. Clinical parameters and laboratory evaluations of participants were assessed at screening, on study day –1, and after completing the study, as detailed in Supplementary Methods.
(§2) Samples were processed as described previously[18] and analyzed by HPLC-MS^2 in conjunction with an on-line HPLC-radioactivity monitor as described in SI Materials and Methods. Identification of metabolites involved comparing the retention time with authentic standards and MS^2 fragmentation patterns (Supplementary Methods). Quantification of metabolites in urine was based on HPLC radioactivity peak area (limit of quantification: 10^3 dpm). Due to the low levels of radioactivity, quantification in plasma was based on targeted HPLC-MS^2 using standard curves obtained with authentic standards (Supplementary Methods).
HPLC-MS identifications of radiolabeled [2-14C](−)-epicatechin metabolites in urine Urine was analyzed with radioactivity and mass spectrometry (MS) detection using a 250 mm x 4.6 mm i.d. 5 µm Luna Phenyl-Hexyl column (Phenomenex, Macclesfield, UK) […]
formic acid. Metabolite identification was performed by 1) co-chromatography of metabolites with reference compounds and a comparison of their MS fragmentation patterns 2, 2) by comparing m/z fragmentation patterns with earlier in-house observed […]
patterns to databases of metabolites reported in earlier polyphenol feeding studies5-7.
Supplementary Table S2, which also provides information on the MSI MI (Metabolite Standards Initiative – Metabolites Identification) level, a confidence level for identification where level 1 stands for fully elucidated (i.e., by comparison with a standard) and level 2 for a well characterized, but not yet fully structurally elucidated 8

[2] = Metabolite profiling and pharmacokinetics in plasma (targeted HPLC-MS2); assay type: in vivo, humans; conditions: human plasma, oral 60 mg 14C-EC; for AUC0-24h / Cmax / T1/2 (elimination half-life) / Tmax / AUC(0-t) / half-life: mean ± SEM n=8; for AUC(0-t): read-out: AUC0-24h; for half-life: read-out: T1/2 (elimination half-life) (converted)
Procedure: as §1, §2
Data are expressed as mean values ± standard error, or as otherwise specified. Pharmacokinetic parameters were calculated using non-compartmental analysis with WinNonlin (Pharsight Corporation, Version 5.2).
5-20% acetonitrile in 0.1 % formic acid. Supplementary Table S2 provides details of HPLC retention times and the m/z values that were monitored.
Supplementary Table S2. Detection of (−)-epicatechin metabolites. HPLC retention times and selected reaction monitoring ions used for the HPLC-MS analysis of (−)-epicatechin metabolites in plasma. […]
Structurally related (-)-epicatechin metabolites in humans: assessment using de novo chemically synthesized authentic standards. Free Radic Biol Med 52, 1403- […]
3 Borges, G. et al. Bioavailability of multiple components following acute ingestion of a polyphenol-rich juice drink. Mol Nutr Food Res 54 Suppl 2, S268-277, […]
4 Stalmach, A. et al. Absorption, metabolism, and excretion of green tea flavan-3-ols in humans with an ileostomy. Mol Nutr Food Res 54, 323-334,

| Metabolite present in urine, collection period 0–48 h [1] [μ mol] | Metabolite present in urine, collection period 0–4 h ([1]; – = not detected) [μ mol] | Metabolite present in urine, collection period 4–8 h ([1]; – = not detected) [μ mol] | AUC0-24h [2] [µM·h] | Cmax [2] [nM] | T1/2 (elimination half-life) [2] [h] | Tmax [2] [h] | Metabolite present in urine, collection period 8–12 h ([1]; – = not detected) [μ mol] | Metabolite present in urine, collection period 12–24 h ([1]; – = not detected) [μ mol] | Metabolite present in urine, collection period 24–48 h ([1]; – = not detected) [μ mol] | Cmax ([2]; male) [nM] | AUC(0-t) ([2]; male) [µM·h] | half-life ([2]; male) [h] | Tmax ([2]; male, read-out: Tmax) [h] | concentration at 24 h ([2]; male, read-out: Plasma concentration 24 h after ingestion) [nM] | SMILES |
| --- | --- | --- | --- | --- | --- | --- | --- | --- | --- | --- | --- | --- | --- | --- | --- |
| 2.3 ± 0.7 | – | 1.3 ± 0.5 | 0.835 ± 0.355 | 54 ± 14 | 6.5 ± 0.8 | 4.9 ± 1.3 | 0.5 ± 0.3 | 0.5 ± 0.1 | – | – | – | – | – | – | O=C(O)CCC(O)Cc1ccc(O[C@@H]2O[C@H](C(=O)O)[C@@H](O)[C@H](O)[C@H]2O)c(O)c1 (some centres unmarked) [5-(3′-Hydroxyphenyl)-γ-hydroxyvaleric acid-4′-O-glucuronide] |
| 18.6 ± 2.5 | 8.0 ± 1.4 | 5.7 ± 1.3 | – | – | – | – | 2.9 ± 0.8 | 2.0 ± 0.8 | – | 359 ± 23 | 1.62 ± 0.332 | 2 ± 1.1 | 0.8 ± 0.1 | – | O=C(O)[C@H]1O[C@@H](Oc2cc([C@H]3Oc4cc(O)cc(O)c4C[C@H]3O)ccc2O)[C@H](O)[C@@H](O)[C@@H]1O [(−)-Epicatechin-3′-O-glucuronide, (−)-epicatechin-3′-O-β-D-glucuronide] |

Continued, compound first:

| SMILES | Metabolite present in urine, collection period 0–48 h [1] [μ mol] | Metabolite present in urine, collection period 0–4 h ([1]; – = not detected) [μ mol] | Metabolite present in urine, collection period 4–8 h ([1]; – = not detected) [μ mol] | AUC0-24h [2] [µM·h] | Cmax [2] [nM] | T1/2 (elimination half-life) [2] [h] | Tmax [2] [h] | Metabolite present in urine, collection period 8–12 h ([1]; – = not detected) [μ mol] | Metabolite present in urine, collection period 12–24 h ([1]; – = not detected) [μ mol] | Metabolite present in urine, collection period 24–48 h ([1]; – = not detected) [μ mol] | Cmax ([2]; male) [nM] | AUC(0-t) ([2]; male) [µM·h] | half-life ([2]; male) [h] | Tmax ([2]; male, read-out: Tmax) [h] | concentration at 24 h ([2]; male, read-out: Plasma concentration 24 h after ingestion) [nM] |
| --- | --- | --- | --- | --- | --- | --- | --- | --- | --- | --- | --- | --- | --- | --- | --- |
| COc1ccc([C@H]2Oc3cc(OS(=O)(=O)O)cc(O)c3C[C@H]2O)cc1O [4′-O-Methyl-(−)-epicatechin-7-sulfate] | 0.4 ± 0.2 | 0.3 ± 0.1 | 0.1 ± 0.1 | 0.166 ± 0.054 | 33 ± 5 | 2.6 ± 0.5 | 1.4 ± 0.2 | – | – | – | – | – | – | – | – |
| O=C1CCC(Cc2ccc(O)c(OS(=O)(=O)O)c2)O1 (centres unmarked) [5-(4′-hydroxyphenyl)-γ-valerolactone-3′-sulfate] | 38.0 ± 4.7 | 3.6 ± 1.1 | 16.0 ± 3.0 | – | – | – | – | 9.8 ± 2.0 | 8.1 ± 2.9 | 0.5 ± 0.5 | 272 ± 56 | 7.59 ± 2.68 | 6.3 ± 1.7 | 6.4 ± 1 | ~50 |
| O=S(=O)(O)Oc1cc([C@H]2Oc3cc(O)cc(O)c3C[C@H]2O)ccc1O [(−)-Epicatechin-3′-sulfate, (−)-epicatechin-3′-sulfate] | 7.7 ± 0.9 | 6.0 ± 0.7 | 1.2 ± 0.4 | – | – | – | – | 0.3 ± 0.1 | 0.2 ± 0.2 | – | 191 ± 17 | 0.633 ± 0.135 | 2 ± 0.3 | 1.1 ± 0.1 | – |
| O=S(=O)(O)Oc1cc(O)cc2c1C[C@@H](O)[C@@H](c1ccc(O)c(O)c1)O2 [(−)-Epicatechin-5-sulfate] | 1.3 ± 0.2 | 1.3 ± 0.2 | – | 0.092 ± 0.025 | 32 ± 4 | 1.9 ± 0.3 | 0.8 ± 0.1 | – | – | – | – | – | – | – | – |
